One assay has as its system SMN2 mRNA. The assay is described as follows: RT-qPCR splicing assay, SMN2 canonical junction (CJ) mRNA. It counts as cell-based, human. The note with it: Homo sapiens; Table 5 panel; canonical junction qPCR; compound concentration having 50% response in CJ decrease; read-out: SMN2 IC50 (decrease in CJ mRNA levels). In outline:
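Cells are plated (A673 allowed 24 h to adhere), dosed with an 11-point 3-fold series topping at 10 uM final, and incubated 24 h at 37 °C. Lysis is followed by cDNA synthesis and qPCR of the CJ transcript, normalized to a housekeeping gene.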

For a further assay, the system named is HTT. The experiment in a line: HiBiT protein abundance assay, HTT HiBiT K562 cell line. It counts as cell-based, human. The note with it: HiBiT K562 cell line, 24 hours, top dose 10 μM; read-out: Effect on protein abundance, HTT (IC50 category). The gist of the method: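 K562 knock-in lines with endogenous HiBiT-tagged target, 10,000 cells/well in IMDM + FBS, treated 24 h at 37° C with 10-point 3-fold dilutions (top 10 μM final; DMSO ≤0.25%). Lytic Nano-Glo HiBiT luminescence normalized to untagged K562 baseline and DMSO controls; IC50 = concentration giving 50% abundance via four-parameter fit.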
For orientation: With HiBiT, luminescence reflects the tagged protein that the partner subunit can reach.

Usually IC50 stands for the midpoint of a concentration-inhibition curve. On to `Cc1cn2cc(-c3ccc4c(=O)n(C5CCNCC5)cnc4c3)ncc2n1` [Compound 297], for which the results for the IC50 in the assay with SMN2 mRNA and in the assay with HTT were under 100 nM and 1000 to 10000 nM, respectively.
Turning to `Cc1cn2nc(-c3ccc4c(=O)n(C5CCNCC5)cnc4c3)cc2c(C)n1` [Compound 298], the IC50 in the assay with SMN2 mRNA is under 100 nM; with HTT, 100 to 1000 nM.
For `CN1CCC(n2cnc3cc(-c4cn[nH]c4)ccc3c2=O)CC1` [Compound 299], the IC50 with SMN2 mRNA and in the assay on HTT was over 10000 nM throughout.
Consider `Cc1nc2c(F)cc(-c3ccc4c(=O)n(C5CCN(C)CC5)cnc4c3)cc2o1` [Compound 300], for which the values for the IC50 in the assay with SMN2 mRNA and in the assay with HTT were under 100 nM and 100 to 1000 nM, respectively.
For `Cc1nc2c(F)cc(-c3ccc4c(=O)n(C5CCN(C)CC5)cnc4c3)cc2s1` [Compound 301], the IC50 in the assay with SMN2 mRNA and in the assay with HTT was 1000 to 10000 nM in each case.
`Cc1cn2cc(-c3ccc4c(=O)n(C5CCN(C)CC5)cnc4c3)nc2c(C)n1` [Compound 302]: the IC50 in the assay on SMN2 mRNA lay within 100 to 1000 nM; with HTT, 1000 to 10000 nM.
Turning to `Cc1cn2nc(-c3ccc4c(=O)n(C5CCN(C)CC5)cnc4c3)cc2c(C)n1` [Compound 303], the IC50 lay in the range of 100 to 1000 nM with SMN2 mRNA and 1000 to 10000 nM in the assay on HTT.
The corresponding values for `CC[C@@H]1C[C@H](n2ncc3cc(-c4cc(C)c5nc(C)cn5n4)ccc3c2=O)CCN1` [Compound 304] are under 100 nM and 100 to 1000 nM.
In the same order, the values of `Cc1cn2cc(-c3ccc4c(=O)n(C5CCNCC5)cnc4c3)cc(C(F)(F)F)c2n1` [Compound 306] are under 100 nM and 100 to 1000 nM.
Take `Cc1cn2cc(-c3ccc4c(=O)n(C5CCN(C)CC5)cnc4c3)ncc2n1` [Compound 308]: the figures for the IC50 with SMN2 mRNA and in the assay with HTT were 100 to 1000 nM and 1000 to 10000 nM, respectively.
`Cc1cn2nc(-c3ccc4c(=O)n(C5CCN(C)CC5)ccc4c3)cc(C)c2n1` [Compound 310]: the results for the IC50 with SMN2 mRNA and in the assay with HTT were under 100 nM and 100 to 1000 nM, respectively.
Turning to `Cc1cc(-c2cnc3c(=O)n(C4CCNCC4)cnc3c2)cc2cn(C)nc12` [Compound 311], the IC50 was 100 to 1000 nM in the assay with SMN2 mRNA and 1000 to 10000 nM with HTT.
The corresponding values for `Cc1cn2nc(-c3cc(F)c4c(=O)n(C5CCNC6(CC6)C5)ncc4c3)cc(C)c2n1` (stereo not drawn) [Compound 312] are under 100 nM and under 100 nM.
As for `Cn1cc2cc(-c3cc(F)c4c(=O)n(C5CCNCC5)cnc4c3)cc(F)c2n1` [Compound 314], the IC50 is 100 to 1000 nM in the assay on SMN2 mRNA and 1000 to 10000 nM in the assay on HTT.
Consider `Cn1cc2cc(-c3cc(F)c4c(=O)n(C5CCNCC5)cnc4c3)c(F)cc2n1` [Compound 315], for which the IC50 is under 100 nM in the assay on SMN2 mRNA and 1000 to 10000 nM in the assay with HTT.
In the same order, the values of `Cn1cc2cc(-c3cc(F)c4c(=O)n(C5CCNCC5)cnc4c3)cc(C#N)c2n1` [Compound 316] are under 100 nM and 100 to 1000 nM.
For the compound `Cc1cn2cc(-c3cc(F)c4c(=O)n(C5CCNCC5)cnc4c3)cc(C)c2n1` [Compound 317], the IC50 with SMN2 mRNA was under 100 nM; in the assay with HTT it was 100 to 1000 nM.
As for `Cc1cn2nc(-c3cc(F)c4c(=O)n(C5CCNCC5)cnc4c3)cc2c(C)n1` [Compound 318], the IC50 in the assay on SMN2 mRNA and in the assay on HTT was under 100 nM throughout.
Turning to `Cc1cn2cc(-c3cc(F)c4c(=O)n(C5CCNCC5)cnc4c3)nc2c(C)n1` [Compound 319], the IC50 is under 100 nM in the assay with SMN2 mRNA and 1000 to 10000 nM in the assay on HTT.
Turning to `COc1cc(-c2cc(F)c3c(=O)n(C4CCNCC4)cnc3c2)cnn1` [Compound 320], the IC50 in the assay on SMN2 mRNA was 1000 to 10000 nM; in the assay on HTT, over 10000 nM.
As to `Cc1cn2nc(-c3cc(F)c4c(=O)n(C5CCNCC5)ccc4c3)cc(C)c2n1` [Compound 322], the IC50 with SMN2 mRNA and with HTT was under 100 nM each time.
Turning to `Cc1cn2cc(-c3cc(F)c4c(=O)n([C@H]5CCNC[C@H]5F)cnc4c3)cc(F)c2n1` [Compound 338], the IC50 is under 100 nM with SMN2 mRNA and 1000 to 10000 nM in the assay with HTT.
In the same order, the values of `Cc1cn2cc(-c3cc(F)c4c(=O)n(C5CCNCC5(F)F)cnc4c3)cc(F)c2n1` (stereo not drawn) [Compound 339] are 100 to 1000 nM and over 10000 nM.
`Cc1cn2cc(-c3cc(F)c4c(=O)n(N5CCNCC5)cnc4c3)cc(F)c2n1` [Compound 340, 5-fluoro-7-{8-fluoro-2-methylimidazo[1,2-a]pyridin-6-yl}-3-(piperazin-1-yl)quinazolin-4-one]: the IC50 with SMN2 mRNA is under 100 nM; in the assay with HTT, 100 to 1000 nM.
Consider `Cc1cn2cc(-c3cc(F)c4c(=O)n(C5=CCNCC5)cnc4c3)cc(F)c2n1` [Compound 342], for which the IC50 with SMN2 mRNA is under 100 nM; with HTT, 100 to 1000 nM.
Take `Cc1cn2nc(-c3cc(N(C)C)c4c(=O)n(C5CCNC6(CC6)C5)cnc4c3)cc(C)c2n1` (stereo not drawn) [Compound 345]: the results for the IC50 in the assay with SMN2 mRNA and with HTT were under 100 nM and over 10000 nM, respectively.
Turning to `Cc1cn2cc(-c3cc(F)c4c(=O)n([C@H]5CCN[C@H](C)C5)cnc4c3)cc(F)c2n1` [Compound 346, trans-5-fluoro-7-(8-fluoro-2-methylimidazo[1,2-a]pyridin-6-yl)-3-(2-methylpiperidin-4-yl)quina-zolin-4(3H)-one], the IC50 in the assay on SMN2 mRNA is under 100 nM; in the assay with HTT, 100 to 1000 nM.
The corresponding values for `Cc1cn2cc(-c3cc(F)c4c(=O)n([C@H]5CCNC[C@@H]5O)cnc4c3)cc(F)c2n1` [Compound 347, 5-fluoro-7-{8-fluoro-2-methylimidazo[1,2-a]pyridin-6-yl}-3-[(3S,4S)-3-hydroxypiperidin-4-yl]quinazolin-4-one] are over 10000 nM and over 10000 nM.
With `Cc1cn2cc(-c3cc(F)c4c(=O)n([C@H]5CNCC[C@@H]5O)cnc4c3)cc(F)c2n1` [Compound 348, 5-fluoro-7-{8-fluoro-2-methylimidazo[1,2-a]pyridin-6-yl}-3-[(3S,4S)-4-hydroxypiperidin-3-yl]quinazolin-4-one], the IC50 in the assay with SMN2 mRNA and in the assay on HTT was over 10000 nM throughout.
In the case of `Cc1cn2nc(-c3ccc4c(=O)n([C@H]5CCNC6(CC6)C5)cnc4c3)cc(C)c2n1` [Compound 349, 3-[(7S)-4-azaspiro[2.5]octan-7-yl]-7-{2,8-dimethylimidazo[1,2-b]pyridazin-6-yl}quinazolin-4-one], the results for the IC50 with SMN2 mRNA and in the assay on HTT were under 100 nM and 100 to 1000 nM, respectively.
Consider `Cc1cn2nc(-c3ccc4c(=O)n([C@@H]5CCNC6(CC6)C5)cnc4c3)cc(C)c2n1` [Compound 350, 3-[(7R)-4-azaspiro[2.5]octan-7-yl]-7-{2,8-dimethylimidazo[1,2-b]pyridazin-6-yl}quinazolin-4-one], for which the IC50 in the assay with SMN2 mRNA is under 100 nM; in the assay on HTT, 100 to 1000 nM.
In the same order, the values of `Cc1cn2nc(-c3cc(F)c4c(=O)n(C5CCNC6(CC6)C5)cnc4c3)cc(C)c2n1` (stereo not drawn) [Compound 351] are under 100 nM and under 100 nM.
Consider `Cc1cn2cc(-c3cc(F)c4c(=O)n(C5CNCCC5=O)cnc4c3)cc(F)c2n1` (stereo not drawn) [Compound 352, 5-fluoro-7-{8-fluoro-2-methylimidazo[1,2-a]pyridin-6-yl}-3-(4-oxopiperidin-3-yl)quinazolin-4-one], for which the IC50 in the assay with SMN2 mRNA and in the assay on HTT was over 10000 nM throughout.
In the case of `Cc1cn2cc(-c3cc(F)c4c(=O)n(C5CCCNCC5)cnc4c3)cc(F)c2n1` (stereo not drawn) [Compound 353, 3-(azepan-4-yl)-5-fluoro-7-{8-fluoro-2-methylimidazo[1,2-a]pyridin-6-yl}quinazolin-4-one], the IC50 with SMN2 mRNA was under 100 nM; in the assay with HTT, 100 to 1000 nM.
For `Cc1ncc(-c2ccc3c(=O)n(C4CCNCC4)cnc3c2)cn1` [Compound 354, 7-(2-methylpyrimidin-5-yl)-3-(piperidin-4-yl)quinazolin-4(3H)-one], the IC50 in the assay with SMN2 mRNA and in the assay on HTT was 1000 to 10000 nM each time.
As to `Cc1cn2nc(-c3cc(C)c4c(=O)n(C5CCNCC5)cnc4c3)cc(C)c2n1` [Compound 355], the IC50 in the assay with SMN2 mRNA and in the assay with HTT was under 100 nM throughout.
For `Cc1cn2nc(-c3cc(F)c4c(=O)n([C@@H]5CCNC6(CC6)C5)cnc4c3)cc(C)c2n1` [Compound 356], the IC50 in the assay with SMN2 mRNA and in the assay with HTT was under 100 nM in each case.
For `CNc1cc(-c2cc(F)c3nc(C)cn3c2)cc2ncn(C3CCNCC3)c(=O)c12` [Compound 358, 7-{8-fluoro-2-methylimidazo[1,2-a]pyridine-6-yl}-5-(methylamino)-3-(piperidin-4-yl)quinazolin-4-one], the values for the IC50 in the assay with SMN2 mRNA and with HTT were 100 to 1000 nM and 1000 to 10000 nM, respectively.
The corresponding values for `CNc1cc(-c2cc(C)c3nc(C)cn3n2)cc2ncn(C3CCNCC3)c(=O)c12` [Compound 359, 7-{2,8-dimethylimidazo[1,2-b]pyridazin-6-yl}-5-(methylamino)-3-(piperidin-4-yl)quinazolin-4-one] are under 100 nM and 100 to 1000 nM.
As for `CNc1cc(-c2cn3cc(C)nc3c(C)n2)cc2ncn(C3CCNCC3)c(=O)c12` [Compound 360, 7-{2,8-dimethylimidazo[1,2-a]pyrazine-6-yl}-5-(methylamino)-3-(piperidin-4-yl)quinazolin-4-one], the IC50 with SMN2 mRNA is 1000 to 10000 nM; in the assay with HTT, over 10000 nM.
The corresponding values for `Cc1cc(-c2cc(F)c3c(=O)n(C4CCNC5(CC5)C4)cnc3c2)nc2cn(C)nc12` (stereo not drawn) [Compound 361, 3-{4-azaspiro[2.5]octan-7-yl}-7-{2,7-dimethylpyrazolo[4,3-b]pyridin-5-yl}-5-fluoroquinazolin-4-one] are under 100 nM and under 100 nM.
As for `Cc1cn2nc(-c3cc(O)c4c(=O)n(C5CCNC5)cnc4c3)cc(C)c2n1` (stereo not drawn) [Compound 362, 7-{2,8-dimethylimidazo[1,2-b]pyridazin-6-yl}-5-hydroxy-3-(pyrrolidin-3-yl)quinazolin-4-one], the IC50 with SMN2 mRNA is 100 to 1000 nM; in the assay with HTT, over 10000 nM.

These data come from patent publication US20250332173A1, “COMPOUNDS AND METHODS FOR MODULATING NUCLEIC ACID SPLICING” (REMIX THERAPEUTICS INC., priority 2021, published 2025).
